Experimental findings from patent US9238014B2, “Pharmaceutical composition for treating alcohol dependency” (priority 2009, dated 2016) are described below.

The experiment has as its system male mouse of the C57BL/6J line. The experiment can be described thus: Alcohol/water preference (alcohol consumption) after forced alcoholization in mice. The class given is in vivo. Further details: key to Alcohol/Water preference index (Pref.), Mean / Alcohol/Water preference index (Pref), Mean: Pref = (Alcohol−Water)/(Alcohol+Water); >0 alcohol, <0 water preference. The note with it: for Alcohol/Water preference index (Pref), Mean: Example 2, Table D, n = 9; for effect on alcohol consumption (in words): same model and same doses, administered separately or in combination as stated; for Alcohol/Water preference index (Pref.), Mean: Experiment A, single agent 1 mg/kg injected before session, n = 6; for effect on alcoholic preference (in words): on this model and at the doses used, vs saline control, significant if p≦0.05. As for the experimental part:
All the products used for the treatments are dissolved in saline (0.9% NaCl) so that the injection volume is 10 ml/kg of body weight.
The animals are kept in their cage throughout the experiment. They are subjected to forced alcoholization, with 10% alcohol as the only drink, for 15 days. They are then returned to normal conditions with water to drink.
Different groups of mice are constituted depending on the treatments: controls (injected with saline), prazosin 1 mg/kg, cyproheptadine 1 mg/kg, prazosin 1 mg/kg+cyproheptadine 1 mg/kg, prazosin 0.5 mg/kg+cyproheptadine 1 mg/kg,
The tests begin 24 hours after forced alcoholization is stopped. They proceed during the first two hours of darkness (period of activity), during which the animals have access to a feeder with water and a feeder with alcohol. The amounts of water and of alcohol consumed are measured after said two hours.
Several sessions of measuring the consumption of water and of alcohol are carried out. For the first 2 sessions (S1-S2) the animals receive an injection of saline; they receive the treatments (prazosin, cyproheptadine, prazosin+cyproheptadine) or saline (for the control group) in the next sessions (T1, T2, T3). The treatments are carried out 10 minutes before each session.
The Alcohol/Water preference index (Pref.) is calculated as follows: Pref.=(Consumption Alcohol−Water)/(Consumption Alcohol+Water)
0<Pref.≦1: Preference for alcohol
Pref.=0: No preference alcohol vs water
−1≦Pref.<0: Preference for water (i.e. aversion to alcohol)
During the sessions for measuring alcohol consumption, the animals receive the treatments 30 minutes before said measurement.
The results are expressed in mean value and standard error of mean (SEM). The preference indices (Pref) of the treated groups are compared with that of the control group by the bilateral Student t-test for independent groups. The values shown (p vs Con) are the probabilities for the difference between treated group and control group being due to chance. A difference is regarded as statistically significant if p≦0.05.
The cyproheptadine/alfuzosin, cyproheptadine/terazosin and cyproheptadine/tamsulosin combinations were tested in experimental conditions identical to those described in example 1 above and using the same model.

[1] abbreviates: alpha1 antagonist alone 0.5 mg/kg, treatment session T1.
The mark [2] stands for this setting: alpha1 antagonist alone 0.5 mg/kg, treatment session T2.
Setting [3] is: alpha1 antagonist alone 0.5 mg/kg, treatment session T3.

Counter-ions that a name gives are not always drawn.

As for `COc1cc2nc(N(C)CCCNC(=O)C3CCCO3)nc(N)c2cc1OC` (centres unmarked) [Alfuzosin, N-[3-[(4-amino-6,7-dimethoxy-quinazolin-2-yl)-methyl-amino]propyl]tetrahydrofuran-2-carboxamide], the “effect on alcohol consumption (in words)” value is given as “do not have an effect”. Also, the “Alcohol/Water preference index (Pref), Mean” value under setting [1] came out at 0.59. Further, the “Alcohol/Water preference index (Pref), Mean” value under setting [2] came out at 0.62. For the same molecule, under setting [3], the “Alcohol/Water preference index (Pref), Mean” value is 0.63.
Consider `CN1CCC(=C2c3ccccc3C=Cc3ccccc32)CC1` [Cyproheptadine, 4-(5H-dibenzo[a,d]cyclohepten-5-ylidene)-1-methylpiperidine hydrochloride], for which the “effect on alcoholic preference (in words)” value is listed as “do not have a significant effect”. The “Alcohol/Water preference index (Pref), Mean” value (cyproheptadine alone 1 mg/kg, treatment session T1) is on record as 0.91. The “Alcohol/Water preference index (Pref), Mean” value (cyproheptadine alone 1 mg/kg, treatment session T2) amounted to 0.76. Also, the “Alcohol/Water preference index (Pref), Mean” value (cyproheptadine alone 1 mg/kg, treatment session T3) turned out to be 0.81. Further, the “Alcohol/Water preference index (Pref.), Mean” value (treatment session T1) was 0.92. Also, where the note is “treatment session T2”, the “Alcohol/Water preference index (Pref.), Mean” value is reported as 0.82. In addition, the “Alcohol/Water preference index (Pref.), Mean” value (treatment session T3) is given as 0.82. Further, the “effect on alcohol consumption (in words)” value (hydrochloride) was “do not have an effect”. In addition, the “effect on alcohol consumption (in words)” value (listed as cyproheptadine, hydrochloride) was “do not have any effect”.
For the molecule `COc1cc2nc(N3CCN(C(=O)c4ccco4)CC3)nc(N)c2cc1OC` [Prazosin, 2-[4-(2-furoyl)piperazin-1-yl]-6,7-dimethoxyquinazolin-4-amine], the “effect on alcoholic preference (in words)” value is “do not have a significant effect” and the “effect on alcohol consumption (in words)” value is reported as “do not have any effect”. Besides, under “treatment session T1”, the “Alcohol/Water preference index (Pref.), Mean” value worked out at 0.78. Moreover, the “Alcohol/Water preference index (Pref.), Mean” value (treatment session T2) came to 0.57. Further, the “Alcohol/Water preference index (Pref.), Mean” value (treatment session T3) is recorded as 0.72.
On to `CCOc1ccccc1OCCN[C@H](C)Cc1ccc(OC)c(S(N)(=O)=O)c1` [Tamsulosin, (R)-5-(2-(2-(2-ethoxyphenoxy)ethylamino)propyl)-2-methoxybenzenesulfonamide], for which the “effect on alcohol consumption (in words)” value was “do not have an effect”. Besides, the “Alcohol/Water preference index (Pref), Mean” value under setting [1] is recorded as 0.68. Also, the “Alcohol/Water preference index (Pref), Mean” value under setting [2] came to 0.79. Also, the “Alcohol/Water preference index (Pref), Mean” value under setting [3] came out at 0.77.
For `COc1cc2nc(N3CCN(C(=O)C4CCCO4)CC3)nc(N)c2cc1OC` (centres unmarked) [Terazosin, 6,7-dimethoxy-2-[4-(tetrahydrofuran-2-ylcarbonyl)piperazin-1-yl]quinazolin-4-amine] the same measures were “do not have an effect”, 0.64, 0.75 and 0.72.
